US20240285646A1, “METHODS AND COMPOSITIONS FOR LIPID FORMULATION OF LIPOPHILIC SMALL MOLECULE THERAPIES OF THE HETEROCYCLIC TYPE” (Neuronascent, Inc., priority 2021, published 2024)
“And” between values parts separate entries of the source, which are not always exact repeats. Equal values may be shown once.

Key:
Solubility of NNI-362 = assay type: physicochemical
[1] = Phase 1A pharmacokinetics of oral NNI-362 in lipid-based formulation (Cohorts F and G); assay type: in vivo, human; settings: for Extrap AUCinf / AUCinf / AUClast / Cmax / MRTinf / Tmax / t1/2 / AUC(0-inf) / AUC(0-t) / MRT inf / half-life: lipid formulation
Description: Exemplary Formulation F2 was prepared by slowly adding NNI-362 into a jar containing 100 mL of lipid-based MCT/Kolliphor EL/Beeswax (95/3/2% w/w) while mixing and then stirring until all powder is wet. The actual weight of NNI-362 was between 11.88 and 12.12 g to provide the nominal concentration of 120 mg/ml.
(§1) A Phase 1A, randomized, placebo-controlled, single and multiple dose, dose-escalation study was conducted to evaluate the safety, tolerability and pharmacokinetics of oral NNI-362 in healthy aged volunteers 50 to 72 years of age. Subjects were fasted prior to dose administration. The plasma concentrations of NNI-362 were determined by a validated bioanalytical method using liquid chromatography-tandem mass spectrometry (LC-MS/MS). The analytical range was 25.0-25000 pg/ml, with 0.0500 ml sample volumes. The stable label d5-NNI-362 was used as the internal standard for this assay.
(§2) NNI-362 was formulated in 1% (w/v) methylcellulose in sterile water as an oral suspension that was administered to Cohorts A-E. NNI-362 was administered in a lipid-based formulation (medium-chain triglycerides, Kolliphor EL and beeswax; 95/3/2%; NNI-362 added to provide 120 mg/ml) oral suspension) for Cohorts F and G.
(§3) PK data analysis was performed on the measurable plasma concentrations of NNI-362. The plasma concentration data were evaluated using Phoenix 64® WinNonlin® software (Version 8.3) to perform noncompartmental analysis. Nominal blood collection times were used in data analysis. The dose administered in dose group was entered into the program as mg/subject.
(§4) The following PK parameters were determined for NNI-362 plasma concentrations for each subject: observed maximal plasma concentration (Cmax), observed time to reach Cmax (Tmax), area under the plasma concentration time curve up to the last blood collection time (AUClast), and extrapolated to infinity (AUCinf), the percent of AUCinf that was extrapolated (% Extrap AUCinf), terminal elimination half-life (t1/2), and mean residence time to infinity (MRTinf). Terminal t1/2, AUCinf, MRTinf could not be calculated in some subjects due to limited data or poor fit (r<0.8) of the terminal phase of the plasma concentration and time curve. Extrapolation of more than 20% of the AUC may result in unreliable values for the terminal parameters.
The correlation coefficient for the terminal phase was determined using WinNonlin. Significant differences in selected pharmacokinetic parameters between the SAD and MAD dose groups of cohorts F and G were evaluated using the t-test (two tail, paired test; p<0.05).

[2] = Phase 1A pharmacokinetics of oral NNI-362 in 1% methylcellulose suspension (Cohorts A-E); assay type: in vivo, human
Description: as §1, §2, §3, §4

[3] = Cohort F, 120 mg oral, MAD, individual subjects
[4] = Cohort F, 120 mg oral, SAD, individual subjects
[5] = Cohort G, 240 mg oral, MAD, individual subjects
[6] = Cohort G, 240 mg oral, SAD, individual subjects
[7] = human, plasma, po, 120 mg, Cohort F, 120 mg oral, MAD, cohort mean
[8] = human, plasma, po, 120 mg, Cohort F, 120 mg oral, SAD, cohort mean
[9] = human, plasma, po, 120 mg, Cohort F, 120 mg oral, SAD, individual subjects
[10] = human, plasma, po, 240 mg, Cohort G, 240 mg oral, MAD, cohort mean
[11] = human, plasma, po, 240 mg, Cohort G, 240 mg oral, SAD, cohort mean
[12] = 60 mg oral, SAD, individual subjects
[13] = 120 mg oral, SAD, individual subjects
[14] = human, plasma, 60 mg oral, SAD, individual subjects
[15] = human, plasma, 120 mg oral, SAD, individual subjects

What does the source list for `CCOc1ccccc1NC(=S)N1CCCN(c2nc3cc(C)c(C)cc3cc2C#N)CC1` [NNI-362]?
solubility (Solubility of NNI-362; common organic solvents): soluble in common organic solvents; solubility (Solubility of NNI-362; water/aqueous solutions): insoluble in water/aqueous solutions; Extrap AUCinf ([1]; Cohort F, 120 mg oral, MAD, cohort mean): 30.0%; AUCinf [1, 3]: 1.28 ng·h/mL and 3.74 ng·h/mL and 8.95 ng·h/mL and 0.719 ng·h/mL and 2.44 ng·h/mL; AUClast [1, 3]: 1.15 ng·h/mL and 2.68 ng·h/mL and 3.8 ng·h/mL and 0.525 ng·h/mL and 1.77 ng·h/mL and 0.179 ng·h/mL; Cmax [1, 3]: 0.193 ng/mL and 0.144 ng/mL and 0.208 ng/mL and 0.0638 ng/mL and 0.126 ng/mL and 0.0404 ng/mL; Extrap AUCinf [1, 3]: 9.78% and 28.4% and 57.5% and 26.9% and 27.7%; MRTinf [1, 3]: 6.68 h and 19.3 h and 42.9 h and 9.7 h and 17.6 h; Tmax [1, 3]: 6 h and 2 h and 8 h; Extrap AUCinf ([1]; Cohort F, 120 mg oral, SAD, cohort mean): 43.8%; AUCinf [1, 4]: 0.8 ng·h/mL and 0.511 ng·h/mL; AUClast [1, 4]: 0.555 ng·h/mL and 1.21 ng·h/mL and 0.289 ng·h/mL and 0.561 ng·h/mL and 0.182 ng·h/mL; Cmax [1, 4]: 0.101 ng/mL and 0.208 ng/mL and 0.0484 ng/mL and 0.0834 ng/mL and 0.0701 ng/mL and 0.0435 ng/mL; Extrap AUCinf [1, 4]: 36.9% and 29.9% and 64.5%; MRTinf [1, 4]: 10.2 h and 12.4 h; Tmax [1, 4]: 6 h and 8 h and 2 h and 1 h and 4 h and 0.5 h; t1/2 [1, 4]: 6.15 h and 8.13 h; Extrap AUCinf ([1]; Cohort G, 240 mg oral, MAD, cohort mean): 34.4%; AUCinf [1, 5]: 4.52 ng·h/mL and 0.426 ng·h/mL and 4.23 ng·h/mL and 3.98 ng·h/mL and 0.975 ng·h/mL; AUClast [1, 5]: 1.99 ng·h/mL and 0.235 ng·h/mL and 4 ng·h/mL and 2.61 ng·h/mL and 2.85 ng·h/mL and 0.569 ng·h/mL; Cmax [1, 5]: 0.124 ng/mL and 0.059 ng/mL and 0.679 ng/mL and 0.221 ng/mL and 0.267 ng/mL and 0.0822 ng/mL; Extrap AUCinf [1, 5]: 54.8% and 43.9% and 5.10% and 27.7% and 40.5%; MRTinf [1, 5]: 39.5 h and 7.10 h and 9.51 h and 18.8 h and 13.5 h; Tmax [1, 5]: 2 h and 6 h and 1 h; t1/2 [1, 5]: 26.2 h and 4.29 h and 5.10 h and 13.5 h and 9.24 h; Extrap AUCinf ([1]; Cohort G, 240 mg oral, SAD, cohort mean): 28.3%; AUCinf [1, 6]: 0.79 ng·h/mL and 2.09 ng·h/mL and 1.09 ng·h/mL; AUClast [1, 6]: 0.103 ng·h/mL and 0.677 ng·h/mL and 0.243 ng·h/mL and 1.02 ng·h/mL and 0.88 ng·h/mL; Cmax [1, 6]: 0.0523 ng/mL and 0.0316 ng/mL and 0.13 ng/mL and 0.0857 ng/mL and 0.0846 ng/mL and 0.21 ng/mL; Extrap AUCinf [1, 6]: 14.4% and 51.1% and 19.3%; MRTinf [1, 6]: 7.76 h and 36.9 h and 5.56 h; Tmax [1, 6]: 2 h and 6 h and 1 h and 4 h; t1/2 [1, 6]: 2.6 h and 2.30 h; Concentration ([1]; Formulation F2, Cohort F, 120 mg single dose, Day 1, K3 EDTA human plasma, patient SRI-F-005, 0 h): < LLOQ; Concentration ([1]; Formulation F2, Cohort F, 120 mg single dose, Day 1, K3 EDTA human plasma, patient SRI-F-005, 12 h): < LLOQ; Concentration ([1]; Formulation F2, Cohort F, 120 mg single dose, Day 1, K3 EDTA human plasma, patient SRI-F-005, 24 h): < LLOQ; Tmax ([1]; human, plasma, oral, range over Cohorts F and G, SAD and MAD, read-out: Tmax values): 0.5 to 8 h; AUC(0-inf) [1, 7]: 3.43 ± 3.3 ng·h/mL; AUC(0-t) [1, 7]: 1.68 ng·h/mL; MRT inf [1, 7]: 19.2 ± 14.3 h; half-life [1, 7]: 12.2 ± 10.2 h; Cmax ([1]; human, plasma, po, 120 mg, Cohort F, 120 mg oral, MAD, cohort mean, read-out: Cmax): 0.129 ng/mL; Cmax ([1]; human, plasma, po, 120 mg, Cohort F, 120 mg oral, MAD, cohort mean, read-out: Cmax after multiple doses): 0.129 ± 0.0673 ng/mL; Tmax ([1]; human, plasma, po, 120 mg, Cohort F, 120 mg oral, MAD, cohort mean, read-out: Tmax): 4.33 h; AUC(0-inf) [1, 8]: 0.59 ± 0.184 ng·h/mL; AUC(0-t) [1, 8]: 0.559 ng·h/mL; MRT inf [1, 8]: 9.99 ± 2.55 h; half-life [1, 8]: 6.24 ± 1.84 h; Cmax ([1]; human, plasma, po, 120 mg, Cohort F, 120 mg oral, SAD, cohort mean, read-out: Cmax): 0.0924 ± 0.0606 ng/mL; Tmax ([1]; human, plasma, po, 120 mg, Cohort F, 120 mg oral, SAD, cohort mean, read-out: Tmax): 3.58 h; AUC(0-inf) [1, 9]: 0.458 ng·h/mL; MRT inf [1, 9]: 7.35 h; half-life [1, 9]: 4.45 h; AUC(0-inf) [1, 10]: 2.83 ± 1.96 ng·h/mL; AUC(0-t) [1, 10]: 2.04 ng·h/mL; MRT inf [1, 10]: 17.7 ± 13 h; half-life [1, 10]: 11.7 ± 8.94 h; Cmax ([1]; human, plasma, po, 240 mg, Cohort G, 240 mg oral, MAD, cohort mean, read-out: Cmax): 0.239 ± 0.23 ng/mL; Tmax ([1]; human, plasma, po, 240 mg, Cohort G, 240 mg oral, MAD, cohort mean, read-out: Tmax): 3.17 h; AUC(0-inf) [1, 11]: 1.32 ± 0.681 ng·h/mL; AUC(0-t) [1, 11]: 0.585 ng·h/mL; MRT inf [1, 11]: 16.7 ± 17.5 h; half-life [1, 11]: 2.58 ± 0.25 h; Cmax ([1]; human, plasma, po, 240 mg, Cohort G, 240 mg oral, SAD, cohort mean, read-out: Cmax): 0.099 ng/mL; Tmax ([1]; human, plasma, po, 240 mg, Cohort G, 240 mg oral, SAD, cohort mean, read-out: Tmax): 2.83 h; Cmax ([1]; human, plasma, po, 240 mg, Cohort G, 240 mg oral, SAD, cohort mean, read-out: mean Cmax): 0.099 ± 0.0639 ng/mL; half-life ([1]; human, plasma, po, 240 mg, Cohort G, 240 mg oral, SAD, individual subjects): 2.8 h; concentration at 0.5 h ([1]; oral, Formulation F2, Cohort F, 120 mg single dose, Day 1, K3 EDTA human plasma, patient SRI-F-005, 0.5 h): 0.0768 ng/mL; concentration at 1 h ([1]; oral, Formulation F2, Cohort F, 120 mg single dose, Day 1, K3 EDTA human plasma, patient SRI-F-005, 1 h): 0.0834 ng/mL; concentration at 2 h ([1]; oral, Formulation F2, Cohort F, 120 mg single dose, Day 1, K3 EDTA human plasma, patient SRI-F-005, 2 h): 0.0388 ng/mL; concentration at 4 h ([1]; oral, Formulation F2, Cohort F, 120 mg single dose, Day 1, K3 EDTA human plasma, patient SRI-F-005, 4 h): 0.0253 ng/mL; concentration at 6 h ([1]; oral, Formulation F2, Cohort F, 120 mg single dose, Day 1, K3 EDTA human plasma, patient SRI-F-005, 6 h): 0.0267 ng/mL; concentration at 8 h ([1]; oral, Formulation F2, Cohort F, 120 mg single dose, Day 1, K3 EDTA human plasma, patient SRI-F-005, 8 h): 0.0263 ng/mL; Cmax ([2]; 20 mg oral, MAD, individual subjects): 0.0251 ng/mL; AUClast [2, 12]: 0.623 ng·h/mL; Cmax [2, 12]: 0.069 ng/mL and 0.0468 ng/mL and 0.0336 ng/mL; Extrap AUCinf [2, 12]: 24.1%; Tmax [2, 12]: 6 h and 24 h; Cmax [2, 13]: 0.0426 ng/mL and 0.0601 ng/mL; Extrap AUCinf [2, 13]: 54.5%; Tmax [2, 13]: 6 h and 2 h; plasma concentrations of NNI-362 ([2]; Cohort A, single oral dose of 10 mg per subject, LLOQ 25 pg/ml): no plasma samples from these subjects contained quantifiable concentrations; plasma drug concentrations ([2]; Cohort B, 20 mg oral, two subjects, one plasma sample each): > 0.025 ng/mL; AUC(0-inf) [2, 14]: 0.622 ng·h/mL; MRT inf [2, 14]: 9.2 h; half-life [2, 14]: 4.09 h; AUC(0-inf) [2, 15]: 0.908 ng·h/mL; MRT inf [2, 15]: 5.5 h; half-life [2, 15]: 13.7 h; Cmax ([2]; human, plasma, po, 20 mg, 20 mg oral, MAD, individual subjects, read-out: Cmax): 0.0151 ng/mL; Tmax ([2]; human, plasma, po, 20 mg, 20 mg oral, MAD, individual subjects, read-out: Tmax): 12 h; AUC(0-t) ([2]; human, plasma, po, 60 mg, 60 mg oral, SAD, individual subjects): 0.473 ng·h/mL; AUC(0-t) ([2]; human, plasma, po, 120 mg, 120 mg oral, SAD, individual subjects): 0.414 ng·h/mL; Cmax ([2]; human, plasma, po, 120 mg, 120 mg oral, SAD, individual subjects, read-out: Cmax): 0.037 ng/mL
